Assay results reported in US12435051B2, “Dual modulator of mGluR5 and 5-HT2A receptor, and use thereof” (Vivozon Inc., priority 2020, dated 2025).
Where two headings read alike, the source gives them in different places.

How the values were obtained:
human 5-HT2AR = biological target: T1, human 5-HT2AR (Homo sapiens, UniProt P28223); experiment: HTRF-based IP1 accumulation assay (5-HT2AR antagonistic effect); assay type: cell-based; settings: HEK293 cells overexpressing human 5-HT2AR; serotonin at EC80
T1 construct: expressed in transfected cells; host or cells: HEK293
T1 sequence (P28223 whole entry): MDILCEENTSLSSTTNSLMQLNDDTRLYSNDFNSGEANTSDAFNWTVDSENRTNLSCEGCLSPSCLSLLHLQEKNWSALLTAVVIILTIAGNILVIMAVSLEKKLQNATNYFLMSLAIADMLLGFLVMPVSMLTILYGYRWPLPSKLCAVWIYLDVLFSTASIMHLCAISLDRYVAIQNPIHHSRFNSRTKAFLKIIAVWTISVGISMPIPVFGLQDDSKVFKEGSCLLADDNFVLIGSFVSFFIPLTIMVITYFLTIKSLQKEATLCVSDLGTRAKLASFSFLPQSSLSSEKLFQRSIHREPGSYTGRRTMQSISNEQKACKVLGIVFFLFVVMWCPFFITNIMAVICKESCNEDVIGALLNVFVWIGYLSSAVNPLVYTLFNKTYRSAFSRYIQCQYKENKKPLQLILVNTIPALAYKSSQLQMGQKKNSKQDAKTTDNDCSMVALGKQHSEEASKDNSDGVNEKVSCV
Method in brief: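 HEK293 cells stably overexpressing human 5-HT2AR were pre-incubated with compound (top 10 μM, serial dilutions, LiCl buffer) 10 min at room temperature, then stimulated with EC80 serotonin 30 min at 37 °C. IP1 accumulation was read by HTRF; IC50s came from activity normalized to serotonin and IP1 controls.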

mGluR5 = biological target: T2, mGluR5 (Homo sapiens, UniProt P41594); experiment: Fluorescence-based Ca2+ mobilization assay; assay type: cell-based; settings: HEK293 cells overexpressing mGluR5; L-glutamate at EC80
T2 construct: expressed in transfected cells; host or cells: HEK293
T2 sequence (P41594 21-1212): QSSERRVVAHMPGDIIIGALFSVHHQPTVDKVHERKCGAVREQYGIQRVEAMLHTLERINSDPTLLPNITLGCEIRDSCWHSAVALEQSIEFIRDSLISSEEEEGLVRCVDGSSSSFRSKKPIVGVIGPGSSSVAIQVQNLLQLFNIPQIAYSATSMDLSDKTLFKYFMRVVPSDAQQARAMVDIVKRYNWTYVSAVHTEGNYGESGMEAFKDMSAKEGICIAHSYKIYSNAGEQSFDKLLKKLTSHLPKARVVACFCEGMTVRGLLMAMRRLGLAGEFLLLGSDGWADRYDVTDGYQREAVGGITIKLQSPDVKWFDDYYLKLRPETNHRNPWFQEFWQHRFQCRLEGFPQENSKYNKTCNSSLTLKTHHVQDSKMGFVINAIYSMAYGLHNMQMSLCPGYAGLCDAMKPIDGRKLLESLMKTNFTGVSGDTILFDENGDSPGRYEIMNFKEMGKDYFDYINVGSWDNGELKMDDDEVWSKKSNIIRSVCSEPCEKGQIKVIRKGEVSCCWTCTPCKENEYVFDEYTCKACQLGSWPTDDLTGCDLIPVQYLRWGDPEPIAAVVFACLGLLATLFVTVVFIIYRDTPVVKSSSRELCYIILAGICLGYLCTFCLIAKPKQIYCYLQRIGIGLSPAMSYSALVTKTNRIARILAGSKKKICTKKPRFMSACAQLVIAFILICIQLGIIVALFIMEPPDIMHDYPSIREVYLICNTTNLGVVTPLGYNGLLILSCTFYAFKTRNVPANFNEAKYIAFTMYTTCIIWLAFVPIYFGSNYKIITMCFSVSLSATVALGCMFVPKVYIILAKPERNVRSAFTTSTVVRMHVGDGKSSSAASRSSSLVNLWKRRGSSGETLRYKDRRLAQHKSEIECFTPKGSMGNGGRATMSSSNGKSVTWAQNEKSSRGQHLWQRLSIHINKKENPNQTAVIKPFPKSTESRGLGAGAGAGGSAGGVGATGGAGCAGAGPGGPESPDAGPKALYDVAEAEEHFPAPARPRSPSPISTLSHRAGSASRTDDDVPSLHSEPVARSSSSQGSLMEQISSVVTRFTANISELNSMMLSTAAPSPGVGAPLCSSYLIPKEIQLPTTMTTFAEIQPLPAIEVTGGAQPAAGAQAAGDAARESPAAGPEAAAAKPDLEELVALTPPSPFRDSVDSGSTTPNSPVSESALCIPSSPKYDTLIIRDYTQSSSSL
Method in brief: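 HEK293 cells stably overexpressing mGluR5, dye-loaded 60 min at 37 °C, then preincubated with compound 30 min at room temperature in the dark. Ca2+ response to L-glutamate at EC80 read on FLIPR for 2 min. Signal normalised to glutamate (100%) and vehicle (0%); IC50 from % inhibition.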

[1] = tested on: physical (tactile) allodynia in spinal nerve ligation model; experiment: Analgesic efficacy experiment using animal model (Chung model, spinal nerve ligation); assay type: in vivo, Sprague-Dawley rats; settings: rat, oral; for inhibition in vivo at 50 mg/kg: 50 mpk; for inhibition in vivo at 100 mg/kg: 100 mpk; for inhibition in vivo at 12.5 mg/kg: 12.5 mpk; for inhibition in vivo at 25 mg/kg: 25 mpk
Description: The Chung model (spinal nerve ligation model) is a representative animal model to study neuropathic pain and is widely accepted as a gold standard for an animal pain model by global pharmaceutical companies around the world.
In this experiment, male Sprague-Dawley rats (100-120 g) purchased from Koatech (Pyeongtaek-si, Gyeonggi-do) were used. Rats were kept in a room maintained at constant temperature and humidity with a 12 hour light-dark cycle. Rats were allowed to eat and drink freely during the experiment.
For the Chung surgery, rats were anesthetized by isoflurane inhalation and the left lumbar nerves L5 and L6 were tightly tied with a suture thread (6-0 silk thread) at the end of the dorsal ganglion and at a front of an entrance to the sciatic nerve according to the article (Kim and Chung (1992), Pain 50(3):355-63). After suturing the incision, the rats were recovered for 2 weeks in the controlled maintenance room to induce physical allodynia in the left hind paw of the rat. To measure physical (tactile) allodynia, the rats were placed in a cage with a wire mesh on the bottom. Stimuli of increasing intensity (using the von Frey filaments in a range of 0.41 to 15.8 g) were placed on the plantar surface on the side of the nerve injury. The stimulus intensity at which the pain response (abrupt lifting, licking or sucking of the foot) was induced was recorded while applying gradual increment of stimuli. As described in the study of Chaplan et al. (1994) (Chaplan et al. (1994) J. Neurosci. Methods 53(1):55-63), the paw withdrawal threshold (PWT) was determined by increasing or decreasing continuous stimulus intensity, and the result was analyzed by applying Dixon's up-down method. Only rats showing no behavior dysfunction (e.g., feet dragging or dropping) were selected and included in the study, and the PWT of the rats used was 3.16 g or less.
After measuring the degree of basic reaction before drug injection, each compound and solvent were injected by oral administration (12.5-100 mg/kg), and the measurement was repeated at regular time intervals (60 and 120 minutes) after the drug was injected.
The experimenter conducted the PWT measurement in a blind condition not knowing which rat was administered with which drug. The control group was administered with gabapentin (65 mg/kg, intraperitoneal administration), and was randomly mixed during the measurement. Statistical analysis was performed on the measured pain response threshold by calculating the reversal rate (% reversal) from pain in Equation 1 below. […] Pain reversal rate (% reversal)=[(PWT after drug administration)−(PWT before drug administration)]*100/[(15 g, Estimated PWT in normal animals)−(PWT before drug administration)] [Equation 1]
The PWT used in this time is a value obtained by multiplying the gram, the unit of “force” measure, by 10,000, and taking the logarithm, which is a method generally used in academia.
Each experiment consisted of the compound group, the solvent group of the compound and the gabapentin (GBP) group as positive control group. As solvent of the compound, 0.5% HPMC (hydroxypropylmethyl cellulose) was used.

[2] = 1 h, read-out: % reversal (1 h)
[3] = 2 h, read-out: % reversal (2 h)

| Compound | IC50 (human 5-HT2AR) | IC50 (mGluR5) | inhibition in vivo at 50 mg/kg [1, 2] | inhibition in vivo at 50 mg/kg [1, 3] | inhibition in vivo at 100 mg/kg [1, 2] | inhibition in vivo at 100 mg/kg [1, 3] | inhibition in vivo at 12.5 mg/kg [1, 2] | inhibition in vivo at 12.5 mg/kg [1, 3] | inhibition in vivo at 25 mg/kg [1, 2] | inhibition in vivo at 25 mg/kg [1, 3] |
| --- | --- | --- | --- | --- | --- | --- | --- | --- | --- | --- |
| O=C(NCC1(NC2CC2)CCC1)c1ccc(C#Cc2ccncc2)cc1 [Example 5, N-((1-(cyclopropylamino)cyclobutyl)methyl)-4-(pyridin-4-ylethynyl)benzamide] | 0.1 to 0.5 µM | 0.1 to 0.5 µM | 43.1% | 34.4% |  |  |  |  |  |  |
| CC1(CNC(=O)c2ccc(C#Cc3ccccc3F)cc2)COC1 [Example 52, 4-((2-fluorophenyl)ethynyl)-N-((3-methyloxetan-3-yl)methyl)benzamide] | 0.1 to 0.5 µM | < 0.1 µM |  |  | 90.8% | 101% |  |  |  |  |
| O=C(NCC1(NC2CC2)CCCC1)c1ccc(C#Cc2ccncc2)cc1 [Example 2, N-((1-(cyclopropylamino)cyclopentyl)methyl)-4-(pyridin-4-ylethynyl)benzamide] | < 0.1 µM | 0.5 to 1 µM |  |  |  |  | 3.91% | 28.1% |  |  |
| O=C(NCC1CCCCC1O)c1ccc(C#Cc2ccccc2F)cc1 (stereo not shown) [Example 63, 4-((2-fluorophenyl)ethynyl)-N-((2-hydroxycyclohexyl)methyl)benzamide] | 0.1 to 0.5 µM | < 0.1 µM | 70.9% | 42.1% |  |  |  |  |  |  |
| O=C(NCC1(NC2CC2)CCCC1)c1ccc(C#Cc2ccc(F)cn2)cc1 [Example 3, N-((1-(cyclopropylamino)cyclopentyl)methyl)-4-((5-fluoropyridin-2-yl)ethynyl)benzamide] | 0.1 to 0.5 µM | 0.5 to 1 µM | 59% | 87.9% |  |  |  |  |  |  |
| O=C(NCC1(NC2CC2)CCCCC1)c1ccc(C#Cc2ccccc2F)cc1 [Example 20, N-((1-(cyclopropylamino)cyclohexyl)methyl)-4-((2-fluorophenyl)ethynyl)benzamide] | < 0.1 µM | 0.5 to 1 µM |  |  | 35% | 67% |  |  |  |  |
| O=C(NCC1(NC2CC2)CCOCC1)c1ccc(C#Cc2ccccc2F)cc1 [Example 22, N-((4-(cyclopropylamino)tetrahydro-2H-pyran-4-yl)methyl)-4-((2-fluorophenyl)ethynyl)benzamide] | < 0.1 µM | 0.1 to 0.5 µM | 19.3% | 77.5% |  |  |  |  |  |  |
| C[C@]1(O)C[C@@H](CNC(=O)c2ccc(C#Cc3ccccc3F)cc2)C1 [Example 87, 4-((2-fluorophenyl)ethynyl)-N-(((1s,3s)-3-hydroxy-3-methylcyclobutyl)methyl)benzamide] | 0.1 to 0.5 µM | < 0.1 µM | 93.7% | 104% |  |  |  |  |  |  |
| O=C(NCC1(NC2CC2)CCCCCC1)c1ccc(C#Cc2ccccc2F)cc1 [Example 12, N-((1-(cyclopropylamino)cycloheptyl)methyl)-4-((2-fluorophenyl)ethynyl)benzamide] | 0.1 to 0.5 µM | 0.1 to 0.5 µM |  |  | 53.8% | 74.8% |  |  |  |  |
| O=C(NCC1CCO1)c1ccc(C#Cc2ccccc2F)cc1 (stereo not shown) [Example 58, 4-((2-fluorophenyl)ethynyl)-N-(oxetan-2-ylmethyl)benzamide] | 0.1 to 0.5 µM | 0.1 to 0.5 µM |  |  |  |  |  |  | 61.5% | 28.3% |
| O=C(NCC1CCOCC1)c1ccc(C#Cc2ccccc2F)cc1 [Example 27, 4-((2-fluorophenyl)ethynyl)-N-((tetrahydro-2H-pyran-4-yl)methyl)benzamide] | 0.1 to 0.5 µM | < 0.1 µM | 70.3% | 66.3% |  |  |  |  |  |  |
| CC1(CNC(=O)c2ccc(C#Cc3ccc(F)cc3)cc2)COC1 [Example 83, 4-((4-fluorophenyl)ethynyl)-N-((3-methyloxetan-3-yl)methyl)benzamide] | 0.1 to 0.5 µM | < 0.1 µM |  |  |  |  |  |  | 55% | 67.8% |
| O=C(NCC1(O)COC1)c1ccc(C#Cc2ccccc2F)cc1 [Example 82, 4-((2-fluorophenyl)ethynyl)-N-((3-hydroxyoxetan-3-yl)methyl)benzamide] | 0.5 to 1 µM | 0.5 to 1 µM | 70.3% | 89.1% |  |  |  |  |  |  |
| O=C(NCC1(CO)CCCCC1)c1ccc(C#Cc2ccccc2F)cc1 [Example 37, 4-((2-fluorophenyl)ethynyl)-N-((1-(hydroxymethyl)cyclohexyl)methyl)benzamide] | 0.1 to 0.5 µM | < 0.1 µM |  |  | 37.1% | 18.8% |  |  |  |  |
| O=C(NCC1CCC(F)(F)CC1)c1ccc(C#Cc2ccncc2)cc1 [Example 88, N-((4,4-difluorocyclohexyl)methyl)-4-(pyridin-4-ylethynyl)benzamide] | 0.5 to 1 µM | < 0.1 µM | 97.8% | 110% |  |  |  |  |  |  |
| O=C(NCC1CC(F)(F)C1)c1ccc(C#Cc2ccncc2)cc1 [Example 89, N-((3,3-difluorocyclobutyl)methyl)-4-(pyridin-4-ylethynyl)benzamide] | 0.1 to 0.5 µM | < 0.1 µM | 111% | 103% |  |  |  |  |  |  |
| O=C(NCC1COCCO1)c1ccc(C#Cc2ccccc2F)cc1 (stereo not shown) [Example 51, N-((1,4-dioxan-2-yl)methyl)-4-((2-fluorophenyl)ethynyl)benzamide] | 0.1 to 0.5 µM | < 0.1 µM | 5.97% | 14.5% |  |  |  |  |  |  |
| CCC1(CNC(=O)c2ccc(C#Cc3ccccc3F)cc2)COC1 [Example 72, N-((3-ethyloxetan-3-yl)methyl)-4-((2-fluorophenyl)ethynyl)benzamide] | 0.1 to 0.5 µM | < 0.1 µM | 41.9% | 71.8% |  |  |  |  |  |  |
| O=C(NCC1(NC2CC2)CCCCCC1)c1ccc(C#Cc2ccncc2F)cc1 [Example 16, N-((1-(cyclopropylamino)cycloheptyl)methyl)-4-((3-fluoropyridin-4-yl)ethynyl)benzamide] | 0.1 to 0.5 µM | 0.5 to 1 µM | 61% | 95.8% |  |  |  |  |  |  |
| O=C(NCC1(NC2CC2)CCCC1)c1ccc(C#Cc2ccccc2F)cc1 [Example 11, N-((1-(cyclopropylamino)cyclopentyl)methyl)-4-((2-fluorophenyl)ethynyl)benzamide] | < 0.1 µM | 0.1 to 0.5 µM |  |  | 58.7% | 57.4% |  |  |  |  |
| O=C(NCC1CCOCC1)c1ccc(C#Cc2ccccc2)cc1 [Example 49, 4-(phenylethynyl)-N-((tetrahydro-2H-pyran-4-yl)methyl)benzamide] | 0.1 to 0.5 µM | < 0.1 µM |  |  |  |  |  |  | 28.5% | 22% |
| COC1(CNC(=O)c2ccc(C#Cc3ccccc3F)cc2)CCOCC1 [Example 66, 4-((2-fluorophenyl)ethynyl)-N-((4-methoxytetrahydro-2H-pyran-4-yl)methyl)benzamide] | 0.5 to 1 µM | < 0.1 µM |  |  |  |  |  |  | 64.1% | 43.2% |
